This note sets out measurements from patent US8642642B2, “Heterocyclic arylsulphones suitable for treating disorders that respond to modulation of the serotonin 5HT6 receptor” (Abbott Laboratories, priority 2006, dated 2014).

One test has as its target T1, human 5-HT6 receptor (Homo sapiens, UniProt P50406).
T1 construct: expressed in transfected cells
Briefly: Human 5-HT6 receptor binding assay (3H-LSD displacement). As to conditions: membranes from HEK-293 cells, 2 nM 3H-LSD. On the procedure: (§1) The substance to be tested was either dissolved in methanol/Chremophor® (BASF-AG) or in dimethyl sulfoxide and then diluted with water to the desired concentration.
The compounds were dissolved in a concentration of 10^−2 M or 10^−3 M in DMSO. Further dilutions were performed in incubation buffer.
The procedure for the binding assay was based on the method of Monsma et al. (1993) Mol Pharmacol 43: 320-327. The binding reaction was carried out in a total volume of 0.250 ml for 60 min at 37° C. Membranes from HEK-293 cells stably expressing the human 5-HT6 receptor were incubated with 2 nM ^3H-LSD in the presence or absence of various concentrations of test compound for 60 min at 37° C. Non-specific binding was defined with 100 μM Serotonin (5-HT). Assays were performed in duplicate. Bound and free radioligand was separated by filtration and bound radioactivity determined by liquid scintillation counting.
The specific ligand binding to the receptors was defined as the difference between the total binding and the nonspecific binding determined in the presence of an excess of unlabelled 5-HT. The results are expressed as a percent of control specific binding obtained in the presence of compound. The IC50 values (concentration causing a half-maximal inhibition of control specific binding) and Hill coefficients (nH) were determined by non-linear regression analysis of the competition curves using Hill equation curve fitting.
The inhibition constants (Ki) were calculated from the Cheng Prusoff equation (Ki=IC50/(1+(L/KD)), where L=concentration of radioligand in the assay, and KD=affinity of the radioligand for the receptor).

Test [1] concerns the target T2, human dopamine D3 receptors (Homo sapiens, UniProt P35462).
T2 construct: expressed in transfected cells
Kind of test: Dopamine D3 receptor binding ([125I]-iodosulpride). Conditions: for Ki: membranes from HEK-293 cells, 0.1 nM [125I]-iodosulpride; for Ki(D2)/Ki(D3): ratio of receptor binding constants, D2L versus D3. On the procedure: as §1
Each assay mixture was run in triplicate.
The incubation buffer contained 50 mM tris, 120 mM NaCl, 5 mM KCl, 2 mM CaCl2, 2 mM MgCl2 and 0.1% bovine serum albumin, 10 μM quinolone and 0.1% ascorbic acid (prepared fresh daily). The buffer was adjusted to pH 7.4 with HCl.
After having been incubated at 25° C. for 60 minutes, the assay mixtures were filtered through a Whatman GF/B glass fiber filter under vacuum using a cell collecting device. The filters were transferred to scintillation viols using a filter transfer system. After 4 ml of Ultima Gold® (Packard) have been added, the samples were shaken for one hour and the radioactivity was then counted in a Beta-Counter (Packard, Tricarb 2000 or 2200CA). The cpm values were converted into dpm using a standard quench series and the program belonging to the instrument.
The inhibition curves were analyzed by means of iterative nonlinear regression analysis using the Statistical Analysis System (SAS) which is similar to the “LIGAND” program described by Munson and Rodbard.

T2 sequence (P35462 whole entry): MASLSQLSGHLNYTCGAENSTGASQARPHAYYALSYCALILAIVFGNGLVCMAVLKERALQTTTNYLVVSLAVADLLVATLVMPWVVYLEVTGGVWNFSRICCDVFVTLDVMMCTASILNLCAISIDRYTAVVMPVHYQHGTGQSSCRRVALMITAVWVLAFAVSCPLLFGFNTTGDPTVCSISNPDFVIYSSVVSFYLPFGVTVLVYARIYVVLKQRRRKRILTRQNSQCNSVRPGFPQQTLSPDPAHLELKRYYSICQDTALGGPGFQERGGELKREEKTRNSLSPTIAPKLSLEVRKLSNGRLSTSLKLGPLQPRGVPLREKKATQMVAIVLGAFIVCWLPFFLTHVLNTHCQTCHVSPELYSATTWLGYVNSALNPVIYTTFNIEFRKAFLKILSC
T1 sequence (P50406 whole entry): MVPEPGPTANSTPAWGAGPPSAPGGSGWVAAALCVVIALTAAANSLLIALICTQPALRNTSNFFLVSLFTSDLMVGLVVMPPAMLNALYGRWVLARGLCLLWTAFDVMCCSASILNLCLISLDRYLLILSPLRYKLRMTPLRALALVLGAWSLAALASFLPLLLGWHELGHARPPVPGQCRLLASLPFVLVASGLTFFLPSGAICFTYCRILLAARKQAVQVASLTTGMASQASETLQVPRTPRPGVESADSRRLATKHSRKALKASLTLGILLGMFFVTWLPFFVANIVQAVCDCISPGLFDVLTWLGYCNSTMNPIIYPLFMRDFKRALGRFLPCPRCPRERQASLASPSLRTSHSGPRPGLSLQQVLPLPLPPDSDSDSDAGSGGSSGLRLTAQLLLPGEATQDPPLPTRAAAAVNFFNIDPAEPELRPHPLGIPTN

What is called Ki is the equilibrium dissociation constant of an inhibitor or competing ligand from its target. The low end stands for tighter binding, the high end for weaker binding. For `CCCN1CC[C@@H](c2ccc(NS(=O)(=O)c3ccc(C(F)(F)F)s3)cc2)C1.Cl` [Example 76, 5-Trifluoromethyl-thiophene-2-sulfonic acid [4-((S)-1-propyl-pyrrolidin-3-yl)-phenyl]-amide hydrochloride], the Ki at human 5-HT6 receptor lay in the range of 1 to 10 nM. Moreover, in test [1], the Ki was in the range of 1 to 10 nM; the “Ki(D2)/Ki(D3)” value is “+++ (between 100 and 150)”.

For `CCCN1CC[C@@H](c2ccc(NS(=O)(=O)c3ccc(-c4csc(C)n4)s3)cc2)C1` [Example 78, 5-(2-Methyl-thiazol-4-yl)-thiophene-2-sulfonic acid [4-((S)-1-propyl-pyrrolidin-3-yl)-phenyl]-amide], the Ki at human 5-HT6 receptor was 1 to 10 nM; in test [1], < 1 nM.

Regarding `CCCN1CC[C@@H](c2ccc(NS(=O)(=O)c3ccc(F)c(Br)c3F)cc2)C1.Cl` [Example 86, 3-Bromo-2,4-difluoro-N-[4-((S)-1-propyl-pyrrolidin-3-yl)-phenyl]-benzenesulfonamide hydrochloride], the Ki at human 5-HT6 receptor was 10 to 50 nM; in test [1], 1 to 10 nM. Also, the “Ki(D2)/Ki(D3)” value in test [1] was “++ (between 50 and 100)”.

The compound `CCCN1CC[C@@H](c2ccc(NS(=O)(=O)c3ccc(C)s3)cc2)C1.Cl` [Example 90, 5-Methyl-thiophene-2-sulfonic acid [4-((S)-1-propyl-pyrrolidin-3-yl)-phenyl]-amide hydrochloride] came in with a Ki at human 5-HT6 receptor of 1 to 10 nM. Besides, in test [1], the Ki fell in the range of 1 to 10 nM and the “Ki(D2)/Ki(D3)” value is given as “++++ (>150)”.

On to `CCCN1CC[C@@H](c2ccc(NS(=O)(=O)c3cccc(F)c3)cc2)C1.O=C(O)C(F)(F)F` [Example 97, 3-Fluoro-N-[4-((S)-1-propyl-pyrrolidin-3-yl)-phenyl]-benzenesulfonamide trifluoroacetate], for which the Ki at human 5-HT6 receptor lay within 1 to 10 nM. Moreover, in test [1], the inhibitory constant (Ki) is 10 to 50 nM; the “Ki(D2)/Ki(D3)” value is “++ (between 50 and 100)”.

`CCCN1CC[C@@H](c2ccc(NS(=O)(=O)c3cccc(Cl)c3)cc2)C1` [Example 98, 3-Chloro-N-[4-((S)-1-propyl-pyrrolidin-3-yl)-phenyl]-benzenesulfonamide] came in with a Ki on human 5-HT6 receptor of 1 to 10 nM. In addition, in test [1], the Ki is 10 to 50 nM; the “Ki(D2)/Ki(D3)” value was “+ (between 10 and 50)”.

With `CCCN1CC[C@@H](c2ccc(NS(=O)(=O)c3cccc(-c4csc(C)n4)c3)cc2)C1` [Example 99, 3-(2-Methyl-thiazol-4-yl)-N-[4-((S)-1-propyl-pyrrolidin-3-yl)-phenyl]-benzenesulfonamide], the Ki at human 5-HT6 receptor was 1 to 10 nM. In test [1], the Ki lay in the range of 50 to 150 nM; the “Ki(D2)/Ki(D3)” value is “+ (between 10 and 50)”.

At human 5-HT6 receptor, `C=CCN1CC[C@@H](c2ccc(NS(=O)(=O)c3cccc(C(F)(F)F)c3)cc2)C1` [Example 100, N-[4-((S)-1-Allyl-pyrrolidin-3-yl)-phenyl]-3-trifluoromethyl-benzenesulfonamide] returned a Ki of 1 to 10 nM. In test [1], the Ki was in the range of 10 to 50 nM; the “Ki(D2)/Ki(D3)” value was “+++ (between 100 and 150)”.

As for `CCCN1CC[C@@H](c2ccc(NS(=O)(=O)c3ccc(F)c(C(F)(F)F)c3)cc2)C1` [Example 102, 4-Fluoro-N-[4-((S)-1-propyl-pyrrolidin-3-yl)-phenyl]-3-trifluoromethyl-benzenesulfonamide], the Ki (on human 5-HT6 receptor; in test [1]) was 10 to 50 nM in each case. Also, the “Ki(D2)/Ki(D3)” value in test [1] is “++ (between 50 and 100)”.

Consider `CCCN1CC[C@@H](c2ccc(NS(=O)(=O)c3cc(F)cc(C(F)(F)F)c3)cc2)C1.Cl` [Example 103, 3-Fluoro-N-[4-((S)-1-propyl-pyrrolidin-3-yl)-phenyl]-5-trifluoromethyl-benzenesulfonamide hydrochloride], for which the Ki at human 5-HT6 receptor was in the range of 10 to 50 nM; in test [1] it was 50 to 150 nM. Further, the “Ki(D2)/Ki(D3)” value in test [1] is “++ (between 50 and 100)”.
